Test results: US9981975B2, “Pyrrolotriazine compounds as tam inhibitors” (Incyte Corporation, priority 2016, dated 2018)

Experiments:
phosphor-Axl = phosphor-Axl (Homo sapiens (Human), UniProt P30530); experiment: TAM Enzymatic Assay (HTRF), Axl; format: biochemical; details: recombinant autophosphorylated Axl, 60 min, room temperature
Experimental: Autophosphorylation of Axl was carried out by incubating the recombinant Axl protein (Life Technologies, PV4275) in buffer containing 50 mM Tris, pH7.5, 0.2 mg/ml Axl, 5 mM ATP, 20 mM MgCl2 and 2 mM DTT at room temperature for 1 hour.
(§1) The kinase assay buffer contained 50 mM HEPES, pH7.5, 10 mM MgCl2, 1 mM EGTA, 0.01% NP-40 and 2 mM DTT. 0.1 ul test compounds dissolved in DMSO were transferred from compound plates to white 384-well assay plates (Greiner […] plates). […] 4 ul enzyme solution (or assay buffer for the enzyme blank) was added to the appropriate wells in each plate, and then 4 ul/well substrate solution was added to initiate the reaction. The plate was protected from light and incubated at room temperature for 60 min. […] The plate was incubated for 1 h at room temperature, and HTRF (homogenous time resolved fluorescence) signal was measured on a PHERAstar FS plate reader (BMG labtech). Percentage of inhibition was calculated for each concentration and IC50 value was generated from curve fitting with GraphPad Prism software.

Tyro3 = Tyro3 (Homo sapiens (Human), UniProt Q06418); experiment: TAM Enzymatic Assay (HTRF), Tyro3; format: biochemical; details: Tyro3, 60 min, room temperature
Experimental: as §1

Chain of Tyro3 (Q06418 41-890): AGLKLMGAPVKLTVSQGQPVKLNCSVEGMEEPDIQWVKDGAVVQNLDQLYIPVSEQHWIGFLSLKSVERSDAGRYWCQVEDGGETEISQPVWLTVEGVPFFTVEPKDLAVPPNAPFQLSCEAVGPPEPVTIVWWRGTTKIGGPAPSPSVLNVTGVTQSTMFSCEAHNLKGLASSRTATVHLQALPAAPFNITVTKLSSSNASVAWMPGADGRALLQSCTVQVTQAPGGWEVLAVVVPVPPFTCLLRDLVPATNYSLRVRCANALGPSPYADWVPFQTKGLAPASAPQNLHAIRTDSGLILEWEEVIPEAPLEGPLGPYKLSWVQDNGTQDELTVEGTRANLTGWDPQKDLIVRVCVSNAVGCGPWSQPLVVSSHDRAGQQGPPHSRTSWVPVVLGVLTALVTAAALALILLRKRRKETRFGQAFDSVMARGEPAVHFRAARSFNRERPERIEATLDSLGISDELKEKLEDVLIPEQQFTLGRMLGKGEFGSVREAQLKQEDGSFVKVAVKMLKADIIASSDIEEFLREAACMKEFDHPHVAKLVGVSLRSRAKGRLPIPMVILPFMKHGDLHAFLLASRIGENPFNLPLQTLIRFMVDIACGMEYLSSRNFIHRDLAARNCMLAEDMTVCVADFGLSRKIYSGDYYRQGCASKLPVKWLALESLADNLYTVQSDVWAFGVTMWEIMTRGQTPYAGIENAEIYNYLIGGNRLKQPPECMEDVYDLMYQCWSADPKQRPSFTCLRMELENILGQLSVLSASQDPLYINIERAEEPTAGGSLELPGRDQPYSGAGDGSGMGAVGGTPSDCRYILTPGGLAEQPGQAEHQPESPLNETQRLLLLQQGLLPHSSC
Chain of phosphor-Axl (P30530 26-894): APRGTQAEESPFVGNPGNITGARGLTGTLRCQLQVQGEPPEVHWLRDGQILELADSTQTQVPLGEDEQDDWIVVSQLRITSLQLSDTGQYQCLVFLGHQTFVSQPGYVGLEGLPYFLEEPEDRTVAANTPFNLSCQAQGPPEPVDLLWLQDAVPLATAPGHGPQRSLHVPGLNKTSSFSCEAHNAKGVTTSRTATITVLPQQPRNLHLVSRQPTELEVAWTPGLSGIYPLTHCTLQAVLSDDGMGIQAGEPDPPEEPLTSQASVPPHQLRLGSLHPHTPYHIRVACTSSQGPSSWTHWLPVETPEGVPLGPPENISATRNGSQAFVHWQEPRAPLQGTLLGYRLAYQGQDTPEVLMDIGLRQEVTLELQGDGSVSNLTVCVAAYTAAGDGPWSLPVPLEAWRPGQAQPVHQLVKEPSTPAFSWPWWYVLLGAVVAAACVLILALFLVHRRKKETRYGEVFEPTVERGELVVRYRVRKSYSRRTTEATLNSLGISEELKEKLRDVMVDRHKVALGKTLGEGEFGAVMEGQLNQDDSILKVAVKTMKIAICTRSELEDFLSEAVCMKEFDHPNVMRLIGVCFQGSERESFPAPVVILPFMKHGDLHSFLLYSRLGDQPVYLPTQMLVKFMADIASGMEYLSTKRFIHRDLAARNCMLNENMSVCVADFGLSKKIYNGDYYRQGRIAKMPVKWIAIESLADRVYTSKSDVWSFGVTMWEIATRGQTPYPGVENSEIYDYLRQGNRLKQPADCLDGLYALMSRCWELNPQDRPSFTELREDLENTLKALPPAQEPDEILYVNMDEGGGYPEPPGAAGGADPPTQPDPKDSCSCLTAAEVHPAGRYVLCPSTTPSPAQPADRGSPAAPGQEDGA

Row | Structure (SMILES) | IC50 (phosphor-Axl) | IC50 (Tyro3)
1 | Cc1c(-c2ccnn2C)c(=O)c(C(=O)Nc2ccc(-c3cc(C4CCN(C(=O)C(C)C)CC4)n4ncnc(N)c34)cc2)cn1C(C)C [Example 97, N-(4-(4-Amino-7-(1-isobutyrylpiperidin-4-yl)pyrrolo[2,1-f][1,2,4]triazin-5-yl)phenyl)-1-isopropyl-6-methyl-5-(1-methyl-1H-pyrazol-5-yl)-4-oxo-1,4-dihydropyridine-3-carboxamide] | ≤ 5 nM | 
2 | Nc1ncnn2c(C3CCN(CCO)CC3)cc(-c3ccc(NC(=O)c4cc5c(n(-c6ccc(F)cc6)c4=O)CCCC5=O)cc3F)c12 [Example 60, N-(4-{4-Amino-7-[1-(2-hydroxyethyl)piperidin-4-yl]pyrrolo[2,1-f][1,2,4]triazin-5-yl}-3-fluorophenyl)-1-(4-fluorophenyl)-2,5-dioxo-1,2,5,6,7,8-hexahydroquinoline-3-carboxamide] | ≤ 5 nM | 
3 | CC(C)C(=O)N1CCC(c2cc(-c3ccc(NC(=O)c4cn(C(C)C)c(=O)n(-c5cccc(F)c5)c4=O)cc3)c3c(N)ncnn23)CC1 [Example 71, N-(4-(4-Amino-7-(1-isobutyrylpiperidin-4-yl)pyrrolo[1,2-f][1,2,4]triazin-5-yl)phenyl)-3-(3-fluorophenyl)-1-isopropyl-2,4-dioxo-1,2,3,4-tetrahydropyrimidine-5-carboxamide] | ≤ 5 nM | 
4 | CCN(C)C(=O)N1CCC(c2cc(-c3ccc(NC(=O)c4cn(C(C)C)c(=O)n(-c5ccc(F)cc5)c4=O)cc3)c3c(N)ncnn23)CC1 [Example 66, N-(4-(4-Amino-7-(1-(ethyl(methyl)carbamoyl)piperidin-4-yl)pyrrolo[1,2-f][1,2,4]triazin-5-yl)phenyl)-3-(4-fluorophenyl)-1-isopropyl-2,4-dioxo-1,2,3,4-tetrahydropyrimidine-5-carboxamide] | ≤ 5 nM | 
5 | CS(=O)(=O)N1CCC(c2cc(-c3ccc(NC(=O)c4cccn(-c5ccccc5)c4=O)cc3)c3c(N)ncnn23)CC1 [Example 40, N-(4-{4-Amino-7-[1-(methylsulfonyl)piperidin-4-yl]pyrrolo[2,1-f][1,2,4]triazin-5-yl}phenyl)-2-oxo-1-phenyl-1,2-dihydropyridine-3-carboxamide] |  | > 100 nM
6 | Cc1nn(C)c(C)c1-c1cc(-c2ccc(NC(=O)c3cn(C(C)C)c(=O)n(-c4cccc(F)c4)c3=O)cc2)c2c(N)ncnn12 [Example 84, N-(4-(4-Amino-7-(1,3,5-trimethyl-1H-pyrazol-4-yl)pyrrolo[1,2-f][1,2,4]triazin-5-yl)phenyl)-3-(3-fluorophenyl)-1-isopropyl-2,4-dioxo-1,2,3,4-tetrahydropyrimidine-5-carboxamide] |  | > 100 nM
7 | Cc1c(C(N)=O)cc(C(=O)Nc2ccc(-c3cc(C4CCN(C(=O)C(C)C)CC4)n4ncnc(N)c34)cc2)c(=O)n1-c1ccccc1 [Example 111a, N^3-(4-(4-Amino-7-(1-isobutyrylpiperidin-4-yl)pyrrolo[2,1-f][1,2,4]triazin-5-yl)phenyl)-6-methyl-2-oxo-1-phenyl-1,2-dihydropyridine-3,5-dicarboxamide] |  | > 100 nM
8 | CN1CCC(c2cc(-c3ccc(NC(=O)c4cccn(-c5ccccc5)c4=O)cc3)c3c(N)ncnn23)CC1 [Example 20, N-{4-[4-Amino-7-(1-methylpiperidin-4-yl)pyrrolo[2,1-f][1,2,4]triazin-5-yl]phenyl}-2-oxo-1-phenyl-1,2-dihydropyridine-3-carboxamide] |  | > 100 nM
9 | Cc1cc(-c2ccc(NC(=O)c3cccn(-c4ccccc4)c3=O)cc2F)c2c(N)ncnn12 [Example 10, N-[4-(4-Amino-7-methylpyrrolo[2,1-f][1,2,4]triazin-5-yl)-3-fluorophenyl]-2-oxo-1-phenyl-1,2-dihydropyridine-3-carboxamide] |  | > 100 nM
10 | Cc1cc(-c2ccc(NC(=O)c3cccn(-c4ccc(F)cc4)c3=O)cc2F)c2c(N)ncnn12 [Example 11, N-[4-(4-Amino-7-methylpyrrolo[2,1-f][1,2,4]triazin-5-yl)-3-fluorophenyl]-1-(4-fluorophenyl)-2-oxo-1,2-dihydropyridine-3-carboxamide] |  | > 100 nM
